Data reported in US20230109801A1 (Blue Oak Pharmaceuticals, Inc., priority 2020, published 2023).
Structures can show the parent of a compound that is named as a salt.

Test system: mice
Assay: SmartCube in vivo neuropharmacological behavioral assay
Conditions: for minimal effective dose: Mus musculus, ip, dose having 50% or more total activity in SmartCube, i.p., read-out: MED (minimal effective dose); for AD: antidepressant, percent probability / AG: analgesic, percent probability / AP: antipsychotic, percent probability / AX: anxiolytic, percent probability / CE: cognitive enhancer, percent probability / HA: hallucinogenic, percent probability / MS: mood stabilizer, percent probability / PS, percent probability / SD: sedative hypnotic, percent probability / SE: side effects, percent probability / UN: uncharacterized CNS activity, percent probability / XG: anxiogenic, percent probability: SmartCube, i.p. 15 min before test, at the MED
Description: The compounds were evaluated for their CNS related properties (e.g., the treatment, prevention or diagnosis of CNS or CNS-related disorders and/or amelioration of symptoms) using neuropharmacological screening methods described in S. L. Roberts et al., Front. Neurosci. 2011, 5:103 (hereinafter referred to as “Roberts,” the contents of which are incorporated herein by reference in their entirety).
According to Roberts, intact systems are useful in detecting improvement in disease-relevant endpoints, because psychiatric diseases generally result from disorders of cell-cell communication or circuitry. The endpoints are typically behavioral in nature, often requiring human observation and interpretation. In order to test multiple compounds for behavioral effects relevant to neurological and psychiatric diseases and disorders, PsychoGenics, Inc. (Paramus, N.J. “PGI”) developed SmartCube®, an automated system in which behaviors of compound-treated mice are captured by digital video and analyzed with computer algorithms to facilitate testing of multiple compounds for behavioral effects relevant to psychiatric disease. (D. Brunner et al., Drug Discov. Today 2002, 7:S107-S112; Alexandrov et al., Eur. J. Pharmacol. 2015, 753:127-134; the contents of each of which are incorporated herein by reference in their entirety).
The SmartCube® system is described in Example 2.2 of U.S. Pat. No. 9,758,529 and Example 289 of WIPO Publication No. WO2018/023070, the contents of each of which are incorporated herein by reference in their entirety.
According to the present disclosure, compounds identified may be evaluated using the SmartCube® system. The results of such analysis correlate certain patterns or combinations of behaviors to CNS effects along a percent probability scale of 0-100 where zero (O) reflects the limit of quantitation (LOQ).
The compounds of the present disclosure were evaluated for their CNS related properties (e.g., the treatment, prevention or diagnosis of CNS or CNS-related disorders and/or amelioration of symptoms) using neuropharmacological screening methods described in S. L. Roberts et al., Front. Neurosci. 2011, 5:103 (hereinafter referred to as “Roberts,” the contents of which are incorporated herein by reference in their entirety).
The SmartCube® system described herein was utilized to compare the behavioral signature of a test compound to a database of behavioral signatures obtained using a large set of diverse reference compounds (including but not limited to antipsychotics, anxiolytics, antidepressants and bipolar disorder medicine), thereby predicting the neuropharmacological effects of a test compound by similarity to major classes of compounds. It produces an activity signature indicating the probability that the activity of the test compound at the administered dose matches a given class of neuropharmacological agents. The test compound is simultaneously compared against multiple classes of agents; thus, a separate probability is generated for each behavioral effect measured (such as but not limited to anxiolytic activity and analgesic activity).
The compounds of the present disclosure were dissolved in a mixture of Pharmasolve™ (N-methyl-2-pyrrolidone (NMP)) and were injected i.p. 15 min. before the behavioral test. For each compound, injections were administered at different dose levels (e.g., 0.3, 1, 3, 10 and 30 mg per kg (mpk)). A compound's minimal effective dose (MED; see Table 3) is a measure of the compound's potency. The MED was defined as the dose (in mpk) having 50% or more total activity in SmartCube®. For each behavioral effect measured, results at the MED are presented. CNS activities of the compounds were recorded (see Table 2). In Table 1, a key to the percent probabilities (probability×100) for each behavioral effect (“X”) are defined provided, where LOQ is the limit of quantification.

Structure (SMILES): CCC(C)N1C2C=CC1c1ccccc12 (centres unmarked) [Compound 55, 11-(Butan-2-yl)-11-azatricyclo[6.2.1.0^2,7]undeca-2,4,6,9-tetraene hydrochloride]
- minimal effective dose: 10 to 30 mg/kg
- AD: antidepressant, percent probability: +++ (25% ≤ X < 50%)
- AG: analgesic, percent probability: + (LOQ ≤ X < 5%)
- AP: antipsychotic, percent probability: + (LOQ ≤ X < 5%)
- AX: anxiolytic, percent probability: ++ (5% ≤ X < 25%)
- CE: cognitive enhancer, percent probability: + (LOQ ≤ X < 5%)
- HA: hallucinogenic, percent probability: + (LOQ ≤ X < 5%)
- MS: mood stabilizer, percent probability: + (LOQ ≤ X < 5%)
- PS, percent probability: ++ (5% ≤ X < 25%)
- SD: sedative hypnotic, percent probability: + (LOQ ≤ X < 5%)
- SE: side effects, percent probability: + (LOQ ≤ X < 5%)
- UN: uncharacterized CNS activity, percent probability: +++ (25% ≤ X < 50%)
- XG: anxiogenic, percent probability: + (LOQ ≤ X < 5%)

Structure (SMILES): COc1cccc2c1C1C=CC2N1 (centres unmarked) [Compound 16, 3-Methoxy-11-azatricyclo[6.2.1.0^2,7]undeca-2,4,6,9-tetraene hydrochloride]
- minimal effective dose: > 30 mg/kg
- AD: antidepressant, percent probability: + (LOQ ≤ X < 5%)
- AG: analgesic, percent probability: + (LOQ ≤ X < 5%)
- AP: antipsychotic, percent probability: + (LOQ ≤ X < 5%)
- AX: anxiolytic, percent probability: ++ (5% ≤ X < 25%)
- CE: cognitive enhancer, percent probability: + (LOQ ≤ X < 5%)
- HA: hallucinogenic, percent probability: + (LOQ ≤ X < 5%)
- MS: mood stabilizer, percent probability: + (LOQ ≤ X < 5%)
- PS, percent probability: + (LOQ ≤ X < 5%)
- SD: sedative hypnotic, percent probability: + (LOQ ≤ X < 5%)
- SE: side effects, percent probability: + (LOQ ≤ X < 5%)
- UN: uncharacterized CNS activity, percent probability: ++ (5% ≤ X < 25%)
- XG: anxiogenic, percent probability: + (LOQ ≤ X < 5%)

Structure (SMILES): CC/C=C/CN1C2CCC1c1ccccc12 [Compound 10, 11-[(2E)-Pent-2-en-1-yl]-11-azatricyclo[6.2.1.0^2,7]undeca-2,4,6-triene hydrochloride]
- minimal effective dose: > 30 mg/kg
- AD: antidepressant, percent probability: + (LOQ ≤ X < 5%)
- AG: analgesic, percent probability: + (LOQ ≤ X < 5%)
- AP: antipsychotic, percent probability: + (LOQ ≤ X < 5%)
- AX: anxiolytic, percent probability: ++ (5% ≤ X < 25%)
- CE: cognitive enhancer, percent probability: + (LOQ ≤ X < 5%)
- HA: hallucinogenic, percent probability: + (LOQ ≤ X < 5%)
- MS: mood stabilizer, percent probability: + (LOQ ≤ X < 5%)
- PS, percent probability: + (LOQ ≤ X < 5%)
- SD: sedative hypnotic, percent probability: + (LOQ ≤ X < 5%)
- SE: side effects, percent probability: + (LOQ ≤ X < 5%)
- UN: uncharacterized CNS activity, percent probability: + (LOQ ≤ X < 5%)
- XG: anxiogenic, percent probability: + (LOQ ≤ X < 5%)

Structure (SMILES): C1=CC2c3ccccc3C1N2C1CCCC1 [Compound 54, 11-Cyclopentyl-11-azatricyclo[6.2.1.0^2,7]undeca-2,4,6,9-tetraene hydrochloride]
- minimal effective dose: 10 to 30 mg/kg
- AD: antidepressant, percent probability: ++++ (50% ≤ X <1 00%)
- AG: analgesic, percent probability: ++ (5% ≤ X < 25%)
- AP: antipsychotic, percent probability: + (LOQ ≤ X < 5%)
- AX: anxiolytic, percent probability: ++ (5% ≤ X < 25%)
- CE: cognitive enhancer, percent probability: + (LOQ ≤ X < 5%)
- HA: hallucinogenic, percent probability: + (LOQ ≤ X < 5%)
- MS: mood stabilizer, percent probability: + (LOQ ≤ X < 5%)
- PS, percent probability: ++ (5% ≤ X < 25%)
- SD: sedative hypnotic, percent probability: + (LOQ ≤ X < 5%)
- SE: side effects, percent probability: + (LOQ ≤ X < 5%)
- UN: uncharacterized CNS activity, percent probability: ++ (5% ≤ X < 25%)
- XG: anxiogenic, percent probability: + (LOQ ≤ X < 5%)

Structure (SMILES): CC(C)N1C2C=CC1c1ccccc12 [Compound 53, 11-(Propan-2-yl)-11-azatricyclo[6.2.1.0^2,7]undeca-2,4,6,9-tetraene hydrochloride]
- minimal effective dose: 10 to 30 mg/kg
- AD: antidepressant, percent probability: ++ (5% ≤ X < 25%)
- AG: analgesic, percent probability: ++ (5% ≤ X < 25%)
- AP: antipsychotic, percent probability: + (LOQ ≤ X < 5%)
- AX: anxiolytic, percent probability: ++ (5% ≤ X < 25%)
- CE: cognitive enhancer, percent probability: + (LOQ ≤ X < 5%)
- HA: hallucinogenic, percent probability: + (LOQ ≤ X < 5%)
- MS: mood stabilizer, percent probability: + (LOQ ≤ X < 5%)
- PS, percent probability: ++ (5% ≤ X < 25%)
- SD: sedative hypnotic, percent probability: + (LOQ ≤ X < 5%)
- SE: side effects, percent probability: + (LOQ ≤ X < 5%)
- UN: uncharacterized CNS activity, percent probability: ++ (5% ≤ X < 25%)
- XG: anxiogenic, percent probability: + (LOQ ≤ X < 5%)

Structure (SMILES): CC(C)N1C2C=CC1c1cc(F)c(F)cc12 [Compound 6, 4,5-Difluoro-11-(propan-2-yl)-11-azatricyclo[6.2.1.0^2,7]undeca-2,4,6,9-tetraene hydrochloride]
- minimal effective dose: > 30 mg/kg
- AD: antidepressant, percent probability: ++ (5% ≤ X < 25%)
- AG: analgesic, percent probability: ++++ (50% ≤ X <1 00%)
- AP: antipsychotic, percent probability: + (LOQ ≤ X < 5%)
- AX: anxiolytic, percent probability: + (LOQ ≤ X < 5%)
- CE: cognitive enhancer, percent probability: + (LOQ ≤ X < 5%)
- HA: hallucinogenic, percent probability: + (LOQ ≤ X < 5%)
- MS: mood stabilizer, percent probability: + (LOQ ≤ X < 5%)
- PS, percent probability: ++ (5% ≤ X < 25%)
- SD: sedative hypnotic, percent probability: + (LOQ ≤ X < 5%)
- SE: side effects, percent probability: + (LOQ ≤ X < 5%)
- UN: uncharacterized CNS activity, percent probability: + (LOQ ≤ X < 5%)
- XG: anxiogenic, percent probability: + (LOQ ≤ X < 5%)

Structure (SMILES): CC(C)N1C2CCC1c1cc(F)c(F)cc12 [Compound 8, 4,5-difluoro-11-(propan-2-yl)-11-azatricyclo[6.2.1.0^2,7]undeca-2(7),3,5-triene hydrochloride]
- minimal effective dose: 10 to 30 mg/kg
- AD: antidepressant, percent probability: + (LOQ ≤ X < 5%)
- AG: analgesic, percent probability: ++ (5% ≤ X < 25%)
- AP: antipsychotic, percent probability: + (LOQ ≤ X < 5%)
- AX: anxiolytic, percent probability: ++ (5% ≤ X < 25%)
- CE: cognitive enhancer, percent probability: + (LOQ ≤ X < 5%)
- HA: hallucinogenic, percent probability: + (LOQ ≤ X < 5%)
- MS: mood stabilizer, percent probability: + (LOQ ≤ X < 5%)
- PS, percent probability: + (LOQ ≤ X < 5%)
- SD: sedative hypnotic, percent probability: ++ (5% ≤ X < 25%)
- SE: side effects, percent probability: ++++ (50% ≤ X <1 00%)
- UN: uncharacterized CNS activity, percent probability: + (LOQ ≤ X < 5%)
- XG: anxiogenic, percent probability: + (LOQ ≤ X < 5%)

Structure (SMILES): CC(C)N1C2CCC1c1c(F)ccc(F)c12 [Compound 34, 3,6-Difluoro-11-(propan-2-yl)-11-azatricyclo[6.2.1.0^2,7]undeca-2,4,6-triene hydrochloride]
- minimal effective dose: > 30 mg/kg
- AD: antidepressant, percent probability: + (LOQ ≤ X < 5%)
- AG: analgesic, percent probability: + (LOQ ≤ X < 5%)
- AP: antipsychotic, percent probability: + (LOQ ≤ X < 5%)
- AX: anxiolytic, percent probability: + (LOQ ≤ X < 5%)
- CE: cognitive enhancer, percent probability: + (LOQ ≤ X < 5%)
- HA: hallucinogenic, percent probability: + (LOQ ≤ X < 5%)
- MS: mood stabilizer, percent probability: + (LOQ ≤ X < 5%)
- PS, percent probability: + (LOQ ≤ X < 5%)
- SD: sedative hypnotic, percent probability: + (LOQ ≤ X < 5%)
- SE: side effects, percent probability: + (LOQ ≤ X < 5%)
- UN: uncharacterized CNS activity, percent probability: + (LOQ ≤ X < 5%)
- XG: anxiogenic, percent probability: + (LOQ ≤ X < 5%)
